Results taken from publication PMC11597210, “A Comprehensive Evaluation of a Coumarin Derivative and Its Corresponding Palladium Complex as Potential Therapeutic Agents in the Treatment of Gynecological Cancers: Synthesis, Characterization, and Cytotoxicity” (Pharmaceutics, 2024).

How the values were obtained:
HeLa cells = assay: CFSE staining of cell proliferation, flow cytometry; format: cell-based, human; conditions: IC50 dose, 72 h
Protocol: To analyze the distribution of cells in the different phases of the cell cycle using flow cytometry, cells were collected at the end of the treatment and processed as previously described. To detect the presence of apoptotic cells, the treated HeLa cells were double-stained with Annexin V-FITC/PI in Annexin V-binding buffer according to the manufacturer’s instructions. For caspase activation, cells were incubated with FITC-labeled pan-caspase inhibitor ApoStat (0.5 μg/mL) for 30 min at 37 °C. The cells were then washed, resuspended in PBS, and analyzed using flow cytometry. The effect of the compounds on cell proliferation was analyzed via CFSE staining using flow cytometry in the same manner as previously described. DAF-FM was used to determine the intracellular production of nitric oxide in the treated HeLa cells, DHE was used to detect intracellular superoxide and hydrogen peroxide, and DHR123 was used to detect the cumulative intracellular production of reactive oxygen species and nitrogen species. These assays were performed as described in previously published studies. All flow cytometry data were obtained in a CytoFLEX cytometer (Beckman Coulter, Brea, CA, USA) and analyzed using FlowJo software v10 (Tree Star, Ashland, OR, USA).

[1] = system: HCT116 (human colorectal carcinoma cells); assay: MTT viability assay, 72 h; format: cell-based; conditions: HCT-116, HCT116, 72 h, mean ± SD
Protocol: (§1) HeLa (human cervical adenocarcinoma cells), A2780 (human ovarian carcinoma cells), MCF7 (human breast adenocarcinoma cells), and HCT116 (human colorectal carcinoma cells) were purchased from American Type Culture Collection (ATCC, Rockville, MD, USA). HeLa, MCF-7, and HCT116 cells were cultivated in HEPES-buffered RPMI-1640, while A2780 cells were cultivated in DMEM. The media were supplemented with 10% heat-inactivated FBS and antibiotics (100 units/mL penicillin and 100 μg/mL streptomycin). The cells were grown at 37 °C in a humidified atmosphere with 5% CO2. For the viability assays, HeLa (3 × 10^3/well), A2780 (8 × 10^3/well), MCF7 (7 × 10^3/well), and HCT116 (6 × 10^3/well) cells were seeded in adherent flat-bottom 96-well plates. For the flow cytometric analyses, HeLa cells were seeded at 8 × 10^4 in 6-well plates.
(§2) The cells were treated with a range of CL, CC, and cisplatin concentrations for 72 h. At the end of the treatment, the cell viability was determined using MTT and crystal violet assays, as previously described. PECs were seeded at a density of 1.8 × 10^5 cells/well in 96-well plates, and two hours later, non-adherent cells were removed by washing the wells with PBS. The remaining adherent cells were treated the same way as the tumor cells. The PEC viability was estimated after 72 h of treatment using the CV assay only.

[2] = system: HeLa (human cervical adenocarcinoma cells); assay: MTT viability assay, 72 h; format: cell-based; conditions: mean ± SD of three experiments
Protocol: as §1, §2

[3] = system: A2780 (human ovarian carcinoma cells); assay: MTT viability assay, 72 h; format: cell-based; conditions: A2780, 72 h, mean ± SD
Protocol: as §1, §2

[4] = system: MCF7 (human breast adenocarcinoma cells); assay: MTT viability assay, 72 h; format: cell-based; conditions: MCF7, 72 h, mean ± SD
Protocol: as §1, §2

[5] = system: Peritoneal exudate cells (PECs); assay: Crystal violet (CV) viability assay on primary cells, 72 h; format: cell-based, C57BL/6 mice; conditions: mouse peritoneal exudate cells, read-out: IC50 PEC CV
Protocol: Peritoneal exudate cells (PECs) were isolated from the peritonea of 8–12-week-old C57BL/6 mice via a cavity rinse with ice-cold PBS. Cells were seeded in HEPES-buffered RPMI-1640 medium supplemented with 5% heat-inactivated FBS and antibiotics. The animals were from the animal facility of the Institute for Biological Research “Siniša Stanković” (IBISS) National Institute of the Republic of Serbia (Belgrade, Serbia). Animal handling was conducted and protocols were followed by the local Institutional Animal Care and Use Committee (IACUC) in accordance with local guidelines as well as European Community directives (EEC Directive of 1986; 86/609/EEC). The ethical approval number is 323-07-02147/2023-05.
as §2

[6] = target: T1, human serum albumin (HSA) (Homo sapiens, UniProt P02768); assay: Spectrofluorimetric titration, HSA fluorescence quenching; format: binding; conditions: for KSV (Stern–Volmer quenching constant) / kq (quenching rate constant): PBS, 2.0 µM HSA; for ΔH° of HSA binding / ΔS° of HSA binding: van't Hoff, 296–310 K
T1 construct: purchased Sigma-Aldrich
Protocol: The fluorescence spectroscopy method was used to examine the possible binding ways of human serum albumin (HSA) with the investigated compounds. […] The fluorescence of HSA was recorded at an excitation wavelength of 290 nm, while the recording range was set at 300–500 nm. The gradual decrease in the maximum emission intensity of the HSA with an increasing concentration of all investigated compounds was monitored at about 330 nm.
Fluorescence quenching parameters were determined using the Stern–Volmer equation (Equation (2)):(2) I0/I=1+kqτ0Q=1+KSVQ.
The notations in the previous equation include I0 and I as HSA fluorescence intensities in the absence and presence of the quencher, while KSV and kq are the Stern–Volmer quenching constant and the quenching rate constant of HSA, τ0 is the fluorophore lifetime of HSA (in the absence of the quencher), and [Q] is the concentration of the quencher. The binding constant (Kb) and the number of binding sites (n) were calculated using the Hill equation (Equation (3)):(3) logI0−I/I=logKb+nlogQ. where I0 and I represent the HSA fluorescence intensities in the absence and presence of the quencher, and [Q] is the concentration of the quencher.
The thermodynamic parameters ΔH°, ΔS°, and ΔG° were calculated using the following equations:(4) lnKb=−∆H^°/RT+∆S^°/R (5) ∆G^°=∆H^°−T∆S^°
To obtain information on the quenching, binding, and thermodynamic parameters for the interaction of the ligand and complex (CL and CC) towards human serum albumin (HSA), spectrofluorimetric investigations were carried out. All experiments were performed under physiological conditions in phosphate-buffered saline (PBS) and at different temperatures (296 K, 303 K, and 310 K).

[7] = system: HCT116 (human colorectal carcinoma cells); assay: Crystal violet (CV) viability assay, 72 h; format: cell-based; conditions: HCT-116, HCT116, 72 h, mean ± SD
Protocol: as §1, §2

[8] = system: HeLa (human cervical adenocarcinoma cells); assay: Crystal violet (CV) viability assay, 72 h; format: cell-based
Protocol: as §1, §2

[9] = system: A2780 (human ovarian carcinoma cells); assay: Crystal violet (CV) viability assay, 72 h; format: cell-based; conditions: A2780, 72 h, mean ± SD
Protocol: as §1, §2

[10] = system: MCF7 (human breast adenocarcinoma cells); assay: Crystal violet (CV) viability assay, 72 h; format: cell-based; conditions: MCF7, 72 h, mean ± SD
Protocol: as §1, §2

T1 sequence (P02768 25-609): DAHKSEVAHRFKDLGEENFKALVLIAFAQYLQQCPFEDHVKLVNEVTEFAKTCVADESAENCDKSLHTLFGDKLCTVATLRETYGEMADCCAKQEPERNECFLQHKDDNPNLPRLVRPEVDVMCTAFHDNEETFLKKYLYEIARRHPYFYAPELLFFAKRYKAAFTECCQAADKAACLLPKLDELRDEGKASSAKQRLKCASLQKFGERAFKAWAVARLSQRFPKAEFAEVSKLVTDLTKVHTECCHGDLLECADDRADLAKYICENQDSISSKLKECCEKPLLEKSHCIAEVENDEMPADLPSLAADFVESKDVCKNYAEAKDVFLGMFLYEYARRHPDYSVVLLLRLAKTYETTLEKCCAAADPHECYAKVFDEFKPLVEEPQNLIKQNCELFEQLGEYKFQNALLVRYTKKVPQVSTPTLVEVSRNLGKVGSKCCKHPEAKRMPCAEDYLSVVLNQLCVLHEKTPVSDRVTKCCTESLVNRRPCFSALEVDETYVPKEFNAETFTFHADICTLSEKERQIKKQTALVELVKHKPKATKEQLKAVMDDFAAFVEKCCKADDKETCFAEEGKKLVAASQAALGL

Structure (SMILES) | effect on proliferation of HeLa cells (CFSE) (HeLa cells) | IC50 [5] [µM] | n (HSA), number of binding sites ([6]; 296 K) | ΔG° of HSA binding ([6]; 296 K) [kcal/mol] | KSV (Stern–Volmer quenching constant) ([6]; 296 K) [M⁻¹] | kq (quenching rate constant) ([6]; 296 K) | n (HSA), number of binding sites ([6]; 303 K) | ΔG° of HSA binding ([6]; 303 K) [kcal/mol] | KSV (Stern–Volmer quenching constant) ([6]; 303 K) [M⁻¹] | kq (quenching rate constant) ([6]; 303 K) [M⁻¹ s⁻¹] | n (HSA), number of binding sites ([6]; 310 K) | ΔG° of HSA binding ([6]; 310 K) [kcal/mol] | KSV (Stern–Volmer quenching constant) ([6]; 310 K) [M⁻¹] | kq (quenching rate constant) ([6]; 310 K) [M⁻¹ s⁻¹] | ΔH° of HSA binding [6] [kcal/mol] | ΔS° of HSA binding [6] [J mol^−1K^−1] | other results
COc1cc(N/C(C)=C2/C(=O)Oc3cc(OC(C)=O)ccc3C2=O)ccc1O [CL, (E)-3-(1-((4-hydroxy-3-methoxyphenyl)amino)ethylidene)-2,4-dioxochroman-7-yl acetate] | does not inhibit the proliferation of HeLa cells | 96.3 | 0.66 | -4.515 | 95600 | 9.56e+12 M⁻¹ s⁻¹ | 0.71 | -5.533 | 76900 | 7.69e+12 | 1.09 | -6.551 | 72700 | 7.27e+12 | 38.535 | 608.51 | IC50 [1]: 54.4 ± 4.3 µM; IC50 [2]: 11.1 ± 0.4 µM; IC50 [3]: 21.1 ± 1.4 µM; IC50 [4]: 45.6 ± 3.5 µM; IC50 [7]: 60.2 ± 3.8 µM; IC50 ([8]; CV assay, mean ± SD of three experiments, read-out: IC50 HeLa CV): 17.7 ± 1.2 µM; IC50 ([8]; rounded IC50 used as treatment dose, assay not stated (matches CV), read-out: IC50 values on HeLa cells as used for flow cytometry treatment): 17 µM; IC50 [9]: 24.1 ± 1.4 µM; IC50 [10]: 44 ± 1.7 µM
COc1cc([N+]2=C(C)c3c(c4ccc(OC(C)=O)cc4oc3=O)[O][Pd-2]23[O]c2c(c(=O)oc4cc(OC(C)=O)ccc24)C(C)=[N+]3c2ccc(O)c(OC)c2)ccc1O [CC, Bis-3-(1-((4-hydroxy-3-methoxyphenyl)amino)ethylidene)-2,4-dioxochroman-7-yl acetate palladium(II) complex] | does not inhibit the proliferation of HeLa cells | 92.9 | 1.07 | -7.921 | 295000 | 2.95e+13 M⁻¹ | 1.06 | -7.99 | 272000 | 2.72e+13 | 1.10 | -8.059 | 280000 | 2.8e+13 | -5.014 | −41.09 | –
